Results reported in patent US20220280661A1, “GLUCOCORTICOID RECEPTOR RADIOLIGANDS AND METHODS FOR THEIR PREPARATION AND USE” (The Regents of the University of California, priority 2019, published 2022).

Experiments:
[1] = Post mortem biodistribution of [18F]-YJH08 at 30, 60, 90 min; type: in vivo, mouse; conditions: C57B16/J mice
Procedure: For a broader survey of radiotracer biodistribution post mortem, mice were euthanized after radiotracer injection with CO2(g) asphyxiation and dissected at dedicated time points post injection. The blood and tissues were removed, washed, dried and weighed. The activity of each tissue was measured with a gamma counter. All data was decay corrected. PRISM software was used to express a percentage (% ID/g) of the injected dose per gram of tissue. […] Table 2 provides a tabular representation of the biodistribution data collected 30, 60, 90 minutes after injection of [18F]-YJH08 in C57B16/J mice. The data are represented as mean standard deviation of the % ID/g.

[2] = molecular target: T1, GR (Mus musculus, UniProt P06537); assay: [18F]-YJH08 biodistribution, dexamethasone treatment study; type: in vivo; conditions: 20 min after injection
T1 construct: from tissue; host or cells: tissues of C57BL6/J mice (intact or adrenalectomized), in vivo
T1 sequence (P06537 1-792): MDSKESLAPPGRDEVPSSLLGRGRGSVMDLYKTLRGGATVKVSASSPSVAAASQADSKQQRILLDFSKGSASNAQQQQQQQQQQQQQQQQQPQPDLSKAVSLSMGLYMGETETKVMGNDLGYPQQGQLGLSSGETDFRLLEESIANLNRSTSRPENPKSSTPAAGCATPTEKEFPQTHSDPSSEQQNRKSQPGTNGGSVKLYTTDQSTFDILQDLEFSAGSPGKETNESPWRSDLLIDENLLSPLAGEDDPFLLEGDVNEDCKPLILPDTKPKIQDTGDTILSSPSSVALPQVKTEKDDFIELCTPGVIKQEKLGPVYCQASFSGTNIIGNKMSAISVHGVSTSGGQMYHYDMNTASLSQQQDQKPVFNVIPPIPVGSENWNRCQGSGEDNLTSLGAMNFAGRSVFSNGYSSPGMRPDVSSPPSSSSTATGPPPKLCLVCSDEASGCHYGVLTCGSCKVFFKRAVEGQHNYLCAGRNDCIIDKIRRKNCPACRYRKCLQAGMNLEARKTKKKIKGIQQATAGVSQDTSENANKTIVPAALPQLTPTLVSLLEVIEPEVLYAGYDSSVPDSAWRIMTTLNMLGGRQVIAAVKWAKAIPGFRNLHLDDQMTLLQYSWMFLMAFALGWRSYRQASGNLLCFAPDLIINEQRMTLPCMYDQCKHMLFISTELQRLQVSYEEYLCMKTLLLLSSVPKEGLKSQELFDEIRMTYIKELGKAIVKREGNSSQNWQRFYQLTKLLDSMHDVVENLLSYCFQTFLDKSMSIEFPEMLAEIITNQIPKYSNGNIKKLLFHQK
Procedure: All animal experiments were conducted under the approval from Institutional Animal Care and Use Committee (IACUC) at UCSF. Male nu nu or C57BL6/J mice (4-6 weeks) purchased from Charles River. All the mice were well-housed in the USCF with free access to food and water. […] The mice were treated once daily for three days. At day 3, the mice received the radiotracer after the final gavage. Adrenalectomized mice were purchased from Charles River, and provided drinking water supplemented with NaCl (aq) per instructions.
For a broader survey of radiotracer biodistribution post mortem, mice were euthanized after radiotracer injection with CO2(g) asphyxiation and dissected at dedicated time points post injection. The blood and tissues were removed, washed, dried and weighed. The activity of each tissue was measured with a gamma counter. All data was decay corrected. PRISM software was used to express a percentage (% ID/g) of the injected dose per gram of tissue. […] The data are represented as mean standard deviation of the % ID/g. […]
The data are presented as a mean±standard deviation of the % ID/g. […] The P value indicates the result of an unpaired, two-tailed Student's t test.

[3] = mice given dexamethasone 100 mg/kg oral gavage once daily for three days
[4] = mice given vehicle by oral gavage once daily for three days

## COc1cccc2c1-c1ccc3c(c1C(Cc1ccc([18F])cc1)O2)C(C)=CC(C)(C)N3 (racemic) [[18F]-YJH08, [^18F]-5-(4-fluorobenzyl)-10-methoxy-2,2,4-trimethyl-2,5-dihydro-1H-chromeno[3,4-f]quinoline]
[1]; 30 min after injection
  radiotracer uptake, Adrenal Gland: 20.02 ± 2.21 % ID/g
  radiotracer uptake, Blood: 0.85 ± 0.1 % ID/g
  radiotracer uptake, Bone: 1.11 ± 0.15 % ID/g
  radiotracer uptake, Brain: 1.68 ± 0.14 % ID/g
  radiotracer uptake, Heart: 3.04 ± 0.75 % ID/g
  radiotracer uptake, Kidney: 4.5 ± 0.5 % ID/g
  radiotracer uptake, Large intestine: 1.33 ± 0.35 % ID/g
  radiotracer uptake, Liver: 11.03 ± 0.89 % ID/g
  radiotracer uptake, Lung: 2.65 ± 0.19 % ID/g
  radiotracer uptake, Muscle: 1.49 ± 0.2 % ID/g
  radiotracer uptake, Pancreas: 4.5 ± 0.15 % ID/g
  radiotracer uptake, Small intestine: 19.05 ± 3.27 % ID/g
  radiotracer uptake, Spleen: 1.59 ± 0.13 % ID/g
  radiotracer uptake, Stomach: 1.88 ± 0.96 % ID/g
  radiotracer uptake, Supraspinal BAT: 14.41 ± 3.42 % ID/g
[1]; 60 min after injection
  radiotracer uptake, Adrenal Gland: 9.43 ± 0.08 % ID/g
  radiotracer uptake, Blood: 0.57 ± 0.02 % ID/g
  radiotracer uptake, Bone: 0.61 ± 0.15 % ID/g
  radiotracer uptake, Brain: 1.33 ± 0.06 % ID/g
  radiotracer uptake, Heart: 1.33 ± 0.21 % ID/g
  radiotracer uptake, Kidney: 2.35 ± 0.34 % ID/g
  radiotracer uptake, Large intestine: 1.23 ± 0.43 % ID/g
  radiotracer uptake, Liver: 7.7 ± 0.69 % ID/g
  radiotracer uptake, Lung: 2.02 ± 0.29 % ID/g
  radiotracer uptake, Muscle: 1.15 ± 0.03 % ID/g
  radiotracer uptake, Pancreas: 2.63 ± 0.05 % ID/g
  radiotracer uptake, Small intestine: 8.61 ± 2.68 % ID/g
  radiotracer uptake, Spleen: 0.83 ± 0.02 % ID/g
  radiotracer uptake, Stomach: 1.63 ± 0.92 % ID/g
  radiotracer uptake, Supraspinal BAT: 16.4 ± 4.93 % ID/g
[1]; 90 min after injection
  radiotracer uptake, Adrenal Gland: 5.72 ± 2.32 % ID/g
  radiotracer uptake, Blood: 0.49 ± 0.06 % ID/g
  radiotracer uptake, Bone: 0.58 ± 0.16 % ID/g
  radiotracer uptake, Brain: 0.97 ± 0.03 % ID/g
  radiotracer uptake, Heart: 0.92 ± 0.14 % ID/g
  radiotracer uptake, Kidney: 1.86 ± 0.26 % ID/g
  radiotracer uptake, Large intestine: 6.67 ± 4.73 % ID/g
  radiotracer uptake, Liver: 8.43 ± 1.38 % ID/g
  radiotracer uptake, Lung: 1.39 ± 0.1 % ID/g
  radiotracer uptake, Muscle: 0.85 ± 0.18 % ID/g
  radiotracer uptake, Pancreas: 1.9 ± 0.41 % ID/g
  radiotracer uptake, Small intestine: 7.67 ± 2.34 % ID/g
  radiotracer uptake, Spleen: 0.74 ± 0.15 % ID/g
  radiotracer uptake, Stomach: 2.61 ± 1.54 % ID/g
  radiotracer uptake, Supraspinal BAT: 14.58 ± 1.91 % ID/g
[2]; [3]
  radiotracer uptake, Adrenal Gland: 10.40 ± 0.7 % ID/g
  radiotracer uptake, Blood: 2.95 ± 0.2 % ID/g
  radiotracer uptake, Bone: 1.25 ± 0.2 % ID/g
  radiotracer uptake, Brain: 1.31 ± 0.07 % ID/g
  radiotracer uptake, Heart: 7.57 ± 0.9 % ID/g
  radiotracer uptake, Kidney: 3.75 ± 0.5 % ID/g
  radiotracer uptake, Large intestine: 1.77 ± 0.5 % ID/g
  radiotracer uptake, Liver: 11.43 ± 2.1 % ID/g
  radiotracer uptake, Lung: 3.92 ± 0.3 % ID/g
  radiotracer uptake, Muscle: 1.71 ± 0.1 % ID/g
  radiotracer uptake, Pancreas: 3.33 ± 0.1 % ID/g
  radiotracer uptake, Small intestine: 34.43 ± 7.2 % ID/g
  radiotracer uptake, Spleen: 4.23 ± 0.3 % ID/g
  radiotracer uptake, Stomach: 0.48 ± 0.4 % ID/g
  radiotracer uptake, Supraspinal BAT: 4.69 ± 0.7 % ID/g
[2]; [4]
  radiotracer uptake, Adrenal Gland: 17.29 ± 6.7 % ID/g
  radiotracer uptake, Blood: 3.98 ± 0.08 % ID/g
  radiotracer uptake, Bone: 2.17 ± 0.2 % ID/g
  radiotracer uptake, Brain: 2.05 ± 0.03 % ID/g
  radiotracer uptake, Heart: 10.66 ± 0.4 % ID/g
  radiotracer uptake, Kidney: 8.49 ± 1.3 % ID/g
  radiotracer uptake, Large intestine: 1.57 ± 0.4 % ID/g
  radiotracer uptake, Liver: 18.46 ± 2.9 % ID/g
  radiotracer uptake, Lung: 6.26 ± 0.4 % ID/g
  radiotracer uptake, Muscle: 2.46 ± 0.2 % ID/g
  radiotracer uptake, Pancreas: 6.22 ± 1.6 % ID/g
  radiotracer uptake, Small intestine: 19.12 ± 5.7 % ID/g
  radiotracer uptake, Spleen: 3.79 ± 0.4 % ID/g
  radiotracer uptake, Stomach: 1.74 ± 0.8 % ID/g
  radiotracer uptake, Supraspinal BAT: 10.52 ± 2.9 % ID/g
